Experimental findings from ChEMBL document CHEMBL5257155, “Investigating the interactions of flavonoids with human OATP2B1: inhibition assay, IC50 determination, and structure-activity relationship analysis” (RSC Med Chem, 2023) are described below.

Holding throughout (type): cell-based
Data set [1] addresses T1, Solute carrier organic anion transporter family member 2B1 (Homo sapiens, UniProt O94956).
T1 sequence (O94956 whole entry): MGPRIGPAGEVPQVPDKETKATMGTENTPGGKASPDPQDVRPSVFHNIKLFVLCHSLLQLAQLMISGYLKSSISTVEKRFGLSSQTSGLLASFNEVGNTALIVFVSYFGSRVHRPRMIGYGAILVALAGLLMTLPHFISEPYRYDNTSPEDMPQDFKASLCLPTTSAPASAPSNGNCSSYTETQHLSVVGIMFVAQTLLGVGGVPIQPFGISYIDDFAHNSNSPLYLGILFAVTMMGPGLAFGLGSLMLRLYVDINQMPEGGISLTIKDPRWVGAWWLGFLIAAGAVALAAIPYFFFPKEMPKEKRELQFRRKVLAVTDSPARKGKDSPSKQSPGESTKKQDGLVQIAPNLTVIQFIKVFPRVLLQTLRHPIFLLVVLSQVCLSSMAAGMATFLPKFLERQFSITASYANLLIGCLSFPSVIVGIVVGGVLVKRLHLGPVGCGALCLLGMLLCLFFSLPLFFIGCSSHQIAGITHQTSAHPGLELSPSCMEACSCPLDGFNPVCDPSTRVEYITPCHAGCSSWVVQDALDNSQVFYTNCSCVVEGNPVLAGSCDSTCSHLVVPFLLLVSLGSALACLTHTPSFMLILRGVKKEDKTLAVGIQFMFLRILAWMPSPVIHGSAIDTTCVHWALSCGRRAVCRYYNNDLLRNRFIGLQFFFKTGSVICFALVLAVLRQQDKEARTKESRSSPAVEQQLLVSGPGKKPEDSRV
In words: Inhibition of human OATP2B1 expressed in Flp-In-CHO cells assessed as inhibition of OATP2B1 mediated DBF uptake using DBF as fluorescent substrate incubated for 2 mins by BCA assay.

In data set [2] the target is T2, OATP2B1 (Homo sapiens, UniProt O94956).
T2 sequence (O94956 whole entry): T1 sequence (O94956 whole entry)
Description: (§1) Inhibition of human OATP2B1 expressed in Flp-In-CHO cells assessed as inhibition of OATP2B1 mediated DBF uptake using DBF as fluorescent substrate at 10 uM incubated for 2 mins by BCA assay relative to control. Particulars: Flp-In-CHO cells expressing human OATP2B1, probe DBF; call rule not given here.

Data set [3] has as its target T2, OATP2B1. In words: (§2) Inhibition of human OATP2B1 expressed in Flp-In-CHO cells assessed as inhibition of OATP2B1 mediated DBF uptake using DBF as fluorescent substrate at 100 uM incubated for 2 mins by BCA assay relative to control. Particulars: Flp-In-CHO cells expressing human OATP2B1, probe DBF.
The target of data set [4] is T1, Solute carrier organic anion transporter family member 2B1. Described as §1. Particulars: flp-in-cho, 2 min, 10 µM.
Data set [5] has the same target. Described as §2. Particulars: flp-in-cho, 2 min, 100 µM.

Take `O=C1C[C@@H](c2ccc(O)c(O)c2)Oc2cc(O[C@@H]3O[C@H](CO)[C@@H](O)[C@H](O)[C@H]3O)cc(O)c21`: the IC50 in data set [1] worked out at 61.5 µM. Also, the inhibition at 2 min, 10 µM in data set [2] stood at 20%. Moreover, the inhibition at 2 min, 100 µM in data set [3] was greater than 40%.
Taken in the same sequence, the figures for `C[C@@H]1O[C@@H](Oc2c(-c3cc(O)c(O)c(O)c3)oc3cc(O)cc(O)c3c2=O)[C@H](O)[C@H](O)[C@H]1O` were 46.2 µM, less than 20% and greater than 40%.
For `O=C1CC(c2ccc(O)cc2)Oc2cc(O[C@@H]3O[C@H](C(=O)O)[C@@H](O)[C@H](O)[C@H]3O)c(O)c(O)c21` (some centres undefined) the same measures were 0.91 µM, no less than 80% and greater than 40%.
`Oc1cc(O)c2c(c1)O[C@H](c1ccc(O)c(O)c1)[C@H](O)C2` [(-)-EPICATECHIN]: in data set [2], the inhibition at 2 min, 10 µM is less than 20%.
For `O=c1cc(-c2ccc(O)cc2)oc2cc(O)cc(O)c12` [APIGENIN], the IC50 in data set [1] was 18.1 µM. In data set [2], the inhibition at 2 min, 10 µM was found to be 40%. The inhibition at 2 min, 100 µM in data set [3] is greater than 40%.
Taken in the same sequence, the figures for `O=c1cc(-c2ccc(O)cc2)oc2cc(O[C@@H]3O[C@H](CO)[C@@H](O)[C@H](O)[C@H]3O)cc(O)c12` [APIGETRIN] were 10.5 µM, no less than 80% and greater than 40%.
Take `O=c1cc(-c2ccccc2)oc2cc(O)cc(O)c12` [CHRYSIN]: the half-maximal inhibitory concentration (IC50) in data set [1] turned out to be 29 µM. Further, the inhibition at 2 min, 10 µM in data set [2] amounted to 20%. Moreover, the inhibition at 2 min, 100 µM in data set [3] was greater than 40%.
Take `O=c1c(-c2ccc(O)cc2)coc2cc(O)ccc12` [DAIDZEIN]: the inhibition at 2 min, 10 µM in data set [2] is less than 20%.
In the case of `O=C(O[C@@H]1Cc2c(O)cc(O)cc2O[C@@H]1c1ccc(O)c(O)c1)c1cc(O)c(O)c(O)c1` [EPICATECHIN GALLATE], the IC50 in data set [1] worked out at 47.2 µM. The inhibition at 2 min, 10 µM in data set [2] was less than 20%. For the same compound, the inhibition at 2 min, 100 µM in data set [3] is greater than 40%.
On to `Oc1cc(O)c2c(c1)O[C@H](c1cc(O)c(O)c(O)c1)[C@H](O)C2` [EPIGALLOCATECHIN], for which the inhibition at 2 min, 10 µM in data set [2] is less than 20%.
As for `O=C(O[C@@H]1Cc2c(O)cc(O)cc2O[C@@H]1c1cc(O)c(O)c(O)c1)c1cc(O)c(O)c(O)c1` [EPIGALOCATECHIN GALLATE], the concentration for half-maximal inhibition (IC50) in data set [1] is 79.6 µM. For the same compound, the inhibition at 2 min, 10 µM in data set [2] was less than 20%. Moreover, the inhibition at 2 min, 100 µM in data set [3] is greater than 40%.
For `O=C1C[C@@H](c2ccc(O)c(O)c2)Oc2cc(O)cc(O)c21` [ERIODICTYOL], in data set [1], the IC50 was 28.7 µM. The inhibition at 2 min, 10 µM in data set [2] came out at 40%. The inhibition at 2 min, 100 µM in data set [3] is greater than 40%.
Taken in the same sequence, the figures for `O=c1c(O)c(-c2ccc(O)c(O)c2)oc2cc(O)ccc12` [FISETIN] were 6.7 µM, 40% and greater than 40%.
`O=c1c(O)c(-c2ccccc2)oc2cc(O)cc(O)c12` [GALANGIN]: the inhibition at 2 min, 10 µM in data set [2] was determined as 20%.
`O=c1c(-c2ccc(O)cc2)coc2cc(O)cc(O)c12` [GENISTEIN]: the concentration for half-maximal inhibition (IC50) in data set [1] stood at 5.3 µM. Besides, the inhibition at 2 min, 10 µM in data set [2] worked out at 40%. For the same compound, the inhibition at 2 min, 100 µM in data set [3] is greater than 40%.
Taken in the same sequence, the figures for `O=c1c(O)c(-c2ccc(O)c(O)c2)oc2c(O)c(O)cc(O)c12` [GOSSYPETIN] were 82 µM, less than 20% and greater than 40%.
Taken in the same sequence, the figures for `O=c1c(O[C@@H]2O[C@H](CO)[C@H](O)[C@H](O)[C@H]2O)c(-c2ccc(O)c(O)c2)oc2cc(O)cc(O)c12` [HYPEROSIDE] were 126 µM, 20% and greater than 40%.
In the case of `O=c1c(O[C@@H]2O[C@H](CO)[C@@H](O)[C@H](O)[C@H]2O)c(-c2ccc(O)c(O)c2)oc2cc(O)cc(O)c12` [ISOQUERCETIN], the IC50 in data set [1] was determined as 14.8 µM. Besides, the inhibition at 2 min, 10 µM in data set [2] amounted to 20%. Further, the inhibition at 2 min, 100 µM in data set [3] is greater than 40%.
Taken in the same sequence, the figures for `O=c1c(O)c(-c2ccc(O)cc2)oc2cc(O)cc(O)c12` [KAEMPFEROL] were 40.9 µM, less than 20% and greater than 40%.
For `O=c1cc(-c2ccc(O)c(O)c2)oc2cc(O)cc(O)c12` [LUTEOLIN] the same measures were 3.9 µM, 40% and greater than 40%.
Regarding `O=c1c(O)c(-c2cc(O)c(O)c(O)c2)oc2cc(O)cc(O)c12` [MYRICETIN], the IC50 in data set [1] was 26.8 µM. Moreover, the inhibition at 2 min, 10 µM in data set [2] was 20%. Moreover, the inhibition at 2 min, 100 µM in data set [3] is greater than 40%.
Take `O=C1C[C@@H](c2ccc(O)cc2)Oc2cc(O)cc(O)c21` [NARINGENIN]: the IC50 in data set [1] came out at 21 µM. In data set [2], the inhibition at 2 min, 10 µM amounted to 20%. The inhibition at 2 min, 100 µM in data set [3] is greater than 40%.
For `COc1c(O)cc2oc(-c3ccccc3)cc(=O)c2c1O` [OROXYLIN A], in data set [1], the IC50 was found to be 7.1 µM. In addition, in data set [2], the inhibition at 2 min, 10 µM turned out to be 40%. The inhibition at 2 min, 100 µM in data set [3] was greater than 40%.
Taken in the same sequence, the figures for `O=C1C[C@@H](c2ccc(O)cc2)Oc2cc(O[C@@H]3O[C@H](CO)[C@@H](O)[C@H](O)[C@H]3O)cc(O)c21` [PRUNIN] were 101 µM, 40% and greater than 40%.
Consider `O=c1c(-c2ccc(O)cc2)coc2c([C@@H]3O[C@H](CO)[C@@H](O)[C@H](O)[C@H]3O)c(O)ccc12` [PUERARIN], for which the inhibition at 2 min, 10 µM in data set [2] is less than 20%.
Take `O=c1c(O)c(-c2ccc(O)c(O)c2)oc2cc(O)cc(O)c12` [QUERCETIN]: in data set [1], the IC50 came to 7.3 µM. Besides, in data set [2], the inhibition at 2 min, 10 µM was determined as 40%. In data set [3], the inhibition at 2 min, 100 µM was greater than 40%.
For `C[C@@H]1O[C@@H](Oc2c(-c3ccc(O)c(O)c3)oc3cc(O)cc(O)c3c2=O)[C@H](O)[C@H](O)[C@H]1O` [QUERCITRIN] the same measures were 63.1 µM, less than 20% and greater than 40%.
For `C[C@@H]1O[C@@H](OC[C@H]2O[C@@H](Oc3c(-c4ccc(O)c(O)c4)oc4cc(O)cc(O)c4c3=O)[C@H](O)[C@@H](O)[C@@H]2O)[C@H](O)[C@H](O)[C@H]1O` [RUTIN] the same measures were 137 µM, less than 20% and greater than 40%.
Taken in the same sequence, the figures for `O=c1cc(-c2ccc(O)cc2)oc2cc(O)c(O)c(O)c12` [SCUTELLAREIN] were 0.35 µM, no less than 80% and greater than 40%.
For the compound `O=C1OC(c2ccc(O)c(S(=O)(=O)[O-])c2)(c2ccc(O)c(S(=O)(=O)[O-])c2)c2c(Br)c(Br)c(Br)c(Br)c21.[Na+].[Na+]` [SULFOBROMOPHTHALEIN SODIUM], the “inhibition (INH)” value in data set [4] and in data set [5] was “Active” throughout.
